The structures appear in SMILES notation.

T1 sequence (Q00987 17-125): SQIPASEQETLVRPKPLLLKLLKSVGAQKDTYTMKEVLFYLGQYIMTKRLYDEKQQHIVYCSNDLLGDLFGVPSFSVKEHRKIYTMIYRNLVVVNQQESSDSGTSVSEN

The experiment has as its target T1, HDM2 (Homo sapiens, UniProt Q00987).
T1 construct: Thioredoxin (N); made in house; host or cells: E. coli strain BL21(DE3)Rosetta
The experiment in a line: FRET assay (HDM2 inhibition; method not described in this part). The experiment is classed as binding. Conditions: Table 1.
The term IC50 denotes the point on the concentration scale where inhibition reaches its midpoint. The compound `C[C@@H](Nc1nc(C(=O)O)nc2nc(-c3nccc4ccccc34)n(Cc3ccc(C(F)(F)F)cc3)c12)C1CCC1` [Example 1.73, 6-{[(1R)-1-cyclobutylethyl]amino}-8-isoquinolin-1-yl-7-[4-(trifluoromethyl)benzyl]-7H-purine-2-carboxylic acid] yielded an IC50 of 27.3 nM.
For `COc1ccnc(-c2nc3nc(C(=O)O)nc(N[C@H](C)C4CCC4)c3n2Cc2ccc(C(F)(F)F)cc2)c1C` [Example 1.74, 6-{[(1R)-1-cyclobutylethyl]amino}-8-(4-methoxy-3-methylpyridin-2-yl)-7-[4-(trifluoromethyl)benzyl]-7H-purine-2-carboxylic acid], the IC50 came to 72.5 nM.
`C[C@@H](Nc1nc(C(=O)O)nc2nc(-c3ncccc3-c3ccccc3)n(Cc3ccc(C(F)(F)F)cc3)c12)C1CCC1` [Example 1.75, 6-{[(1R)-1-cyclobutylethyl]amino}-8-(3-phenylpyridin-2-yl)-7-[4-(trifluoromethyl)benzyl]-7H-purine-2-carboxylic acid] had a concentration for half-maximal inhibition (IC50) of 6.12 nM.
In the case of `C[C@@H](Nc1nc(C(=O)O)nc2nc(-c3cc(C(C)(C)C)ccn3)n(Cc3ccc(C(F)(F)F)c(F)c3)c12)C1CCC1` [Example 1.76, 8-(4-tert-butylpyridin-2-yl)-6-{[(1R)-1-cyclobutylethyl]amino}-7-[3-fluoro-4-(trifluoromethyl)benzyl]-7H-purine-2-carboxylic acid], the IC50 was found to be 8.49 nM.
The same measure for `C[C@@H](Nc1nc(C(=O)O)nc2nc(-c3cc(C4CC4)ccn3)n(Cc3ccc(C(F)(F)F)c(F)c3)c12)C1CCC1` [Example 1.77, 6-{[(1R)-1-cyclobutylethyl]amino}-8-(4-cyclopropylpyridin-2-yl)-7-[3-fluoro-4-(trifluoromethyl)benzyl]-7H-purine-2-carboxylic acid]: 20 nM; for `C[C@@H](Nc1nc(C(=O)O)nc2nc(-c3cc(C4CCC4)ccn3)n(Cc3ccc(C(F)(F)F)c(F)c3)c12)C1CCC1` [Example 1.78, 6-{[(1R)-1-cyclobutylethyl]amino}-8-(4-cyclobutylpyridin-2-yl)-7-[3-fluoro-4-(trifluoromethyl)benzyl]-7H-purine-2-carboxylic acid]: 9.25 nM.
`CCc1ccnc(-c2nc3nc(C(=O)O)nc(N[C@H](C)C4CCC4)c3n2Cc2ccc(C(F)(F)F)c(F)c2)c1` [Example 1.79, 6-{[(1R)-1-cyclobutylethyl]amino}-8-(4-ethylpyridin-2-yl)-7-[3-fluoro-4-(trifluoromethyl)benzyl]-7H-purine-2-carboxylic acid] came in with an IC50 of 10.2 nM.
For the compound `CCCc1ccnc(-c2nc3nc(C(=O)O)nc(N[C@H](C)C4CCC4)c3n2Cc2ccc(C(F)(F)F)c(F)c2)c1` [Example 1.80, 6-{[(1R)-1-cyclobutylethyl]amino}-7-[3-fluoro-4-(trifluoromethyl)benzyl]-8-(4-propylpyridin-2-yl)-7H-purine-2-carboxylic acid], the IC50 was found to be 7.45 nM.
As for `CC(C)c1cncc(-c2nc3nc(C(=O)O)nc(N[C@H](C)C4CCC4)c3n2Cc2ccc(C(F)(F)F)cc2)c1` [Example 1.81, 6-{[(1R)-1-cyclobutylethyl]amino}-8-[5-(1-methylethyl)pyridin-3-yl]-7-[4-(trifluoromethyl)benzyl]-7H-purine-2-carboxylic acid], the figure is 74.4 nM; as for `Cc1ccnc(-c2nc3nc(C(=O)O)nc(N[C@H](C)C4CCC4)c3n2Cc2ccc(C(F)(F)F)cc2)c1F` [Example 1.82, 6-{[(1R)-1-cyclobutylethyl]amino}-8-(3-fluoro-4-methylpyridin-2-yl)-7-[4-(trifluoromethyl)benzyl]-7H-purine-2-carboxylic acid], 49 nM.
Regarding `CC(C)c1ccc(OC(F)(F)F)c(-c2nc3nc(C(=O)O)nc(N[C@H](C)C4CCC4)c3n2Cc2ccc(OC(F)(F)F)c(F)c2)c1` [Example 1.83, 6-{[(1R)-1-cyclobutylethyl]amino}-7-[3-fluoro-4-(trifluoromethoxy)benzyl]-8-[5-(1-methylethyl)-2-(trifluoromethoxy)phenyl]-7H-purine-2-carboxylic acid], the midpoint of inhibition, the IC50, lay at 23.2 nM.
As for `Cc1ccc(OC(F)(F)F)c(-c2nc3nc(C(=O)O)nc(N[C@H](C)C4CCC4)c3n2Cc2ccc(C(F)(F)F)cc2)c1` [Example 1.84, 6-{[(1R)-1-cyclobutylethyl]amino}-8-[5-methyl-2-(trifluoromethoxy)phenyl]-7-[4-(trifluoromethyl)benzyl]-7H-purine-2-carboxylic acid], the figure is 9.68 nM; as for `CC(C)Cc1ccnc(-c2nc3nc(C(=O)O)nc(N[C@H](C)C4CCC4)c3n2Cc2ccc(C(F)(F)F)cc2)c1` [Example 1.85, 6-{[(1R)-1-cyclobutylethyl]amino}-8-[4-(2-methylpropyl)pyridin-2-yl]-7-[4-(trifluoromethyl)benzyl]-7H-purine-2-carboxylic acid], 9.69 nM; as for `Cc1cnc(-c2nc3nc(C(=O)O)nc(N[C@H](C)C4CCC4)c3n2Cc2ccc(C(F)(F)F)cc2)cc1C(C)C` [Example 1.86, 6-{[(1R)-1-cyclobutylethyl]amino}-8-[5-methyl-4-(1-methylethyl)pyridin-2-yl]-7-[4-(trifluoromethyl)benzyl]-7H-purine-2-carboxylic acid], 24.8 nM.
As for `Cc1c(C(C)C)ccnc1-c1nc2nc(C(=O)O)nc(N[C@H](C)C3CCC3)c2n1Cc1ccc(C(F)(F)F)cc1` [Example 1.87, 6-{[(1R)-1-cyclobutylethyl]amino}-8-[3-methyl-4-(1-methylethyl)pyridin-2-yl]-7-[4-(trifluoromethyl)benzyl]-7H-purine-2-carboxylic acid], the figure is 59 nM; as for `C[C@@H](Nc1nc(C(=O)O)nc2nc(-c3cc(CCC(C)(C)C)ccn3)n(Cc3ccc(C(F)(F)F)cc3)c12)C1CCC1` [Example 1.88, 6-{[(1R)-1-cyclobutylethyl]amino}-8-[4-(3,3-dimethylbutyl)pyridin-2-yl]-7-[4-(trifluoromethyl)benzyl]-7H-purine-2-carboxylic acid], 19.6 nM.
`C[C@@H](Nc1nc(C(=O)O)nc2nc(-c3cc(CCC4CC4)ccn3)n(Cc3ccc(C(F)(F)F)cc3)c12)C1CCC1` [Example 1.89, 6-{[(1R)-1-cyclobutylethyl]amino}-8-[4-(2-cyclopropylethyl)pyridin-2-yl]-7-[4-(trifluoromethyl)benzyl]-7H-purine-2-carboxylic acid]: it took 8.67 nM to reach half-maximal inhibition (IC50).
As for `Cc1cnc(-c2nc3nc(C(=O)O)nc(N[C@H](C)C4CCC4)c3n2Cc2ccc(OC(F)(F)F)c(F)c2)cc1C(C)C` [Example 1.90, 6-{[(1R)-1-cyclobutylethyl]amino}-7-[3-fluoro-4-(trifluoromethoxy)benzyl]-8-[5-methyl-4-(1-methylethyl)pyridin-2-yl]-7H-purine-2-carboxylic acid], the IC50 amounted to 24.7 nM.
With `Cc1c(C(C)C)ccnc1-c1nc2nc(C(=O)O)nc(N[C@H](C)C3CCC3)c2n1Cc1ccc(OC(F)(F)F)c(F)c1` [Example 1.91, 6-{[(1R)-1-cyclobutylethyl]amino}-7-[3-fluoro-4-(trifluoromethoxy)benzyl]-8-[3-methyl-4-(1-methylethyl)pyridin-2-yl]-7H-purine-2-carboxylic acid], inhibition was half-maximal at 22.3 nM (IC50).
